{"source": "patent US12227500B2", "about": "“Substituted pyrrolo[2,3-b]pyridines for suppressing toxic endoplasmic reticulum stress” (THE TRUSTEES OF COLUMBIA UNIVERSITY IN THE CITY OF NEW YORK, priority 2018, dated 2025)", "key": {"human ES motor neurons": {"test_system": "human ES motor neurons", "assay": "Rescue of CPA toxicity by kinase inhibitors in dilution series (FIG. 3)", "conditions": "dilution series, FIG. 3"}, "NUAK1": {"target": "NUAK1 (Homo sapiens, UniProt O60285)", "sequence (O60285 whole entry, species assumed)": "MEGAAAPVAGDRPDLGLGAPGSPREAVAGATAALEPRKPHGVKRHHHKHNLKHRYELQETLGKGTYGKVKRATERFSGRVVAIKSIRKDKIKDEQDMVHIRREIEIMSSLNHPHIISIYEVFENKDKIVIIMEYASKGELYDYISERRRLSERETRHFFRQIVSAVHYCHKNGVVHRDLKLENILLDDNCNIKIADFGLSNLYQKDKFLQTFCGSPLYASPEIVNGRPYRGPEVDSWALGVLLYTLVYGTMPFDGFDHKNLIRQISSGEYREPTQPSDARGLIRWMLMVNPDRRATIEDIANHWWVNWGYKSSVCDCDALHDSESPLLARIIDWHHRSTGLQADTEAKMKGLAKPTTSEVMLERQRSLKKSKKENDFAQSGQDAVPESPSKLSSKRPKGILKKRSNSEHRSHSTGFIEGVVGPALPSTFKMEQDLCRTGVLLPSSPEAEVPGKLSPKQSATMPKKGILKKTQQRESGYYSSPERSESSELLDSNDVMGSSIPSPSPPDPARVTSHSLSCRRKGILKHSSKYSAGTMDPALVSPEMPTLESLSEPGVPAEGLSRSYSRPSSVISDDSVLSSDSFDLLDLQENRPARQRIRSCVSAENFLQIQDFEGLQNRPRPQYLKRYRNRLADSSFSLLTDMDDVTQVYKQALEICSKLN", "conditions": "cited from earlier work"}, "[1]": {"test_system": "human stem cell-derived motor neurons derived from a healthy patient", "assay": "CPA survival assay, wild-type human stem cell-derived motor neurons", "conditions": "8-point dilution series"}, "[2]": {"test_system": "human stem cell-derived motor neurons derived from a healthy patient"}, "[3]": {"assay": "Plasma and brain concentration 30 min after IP injection", "format": "in vivo, mouse", "conditions": "male, C57BL6/J, mouse, mice, ip dosing, 30 minutes; for Kp at 30 min: brain/plasma, read-out: B/P", "experimental": "All studies were performed on 6-week old male C57BL6/J mice that were housed in the Columbia University Medical Center facility in a 12h light/dark cycle with access to food and water ad libitum. All animal procedures were approved by the Columbia University IACUC. […] Animals were weighed and injected once intraperitoneally (IP) at the indicated dose (10 or 20 mg/kg). After 30 min, animals were deeply anesthetized with 2.5% Avertin. Whole blood was collected by cardiac puncture in tubes containing 0.5M EDTA as an anticoagulant, and centrifuged for 10 min at 845 rcf at 4° to isolate plasma. Following cardiac puncture, animals were decapitated and brains were dissected and weighed. Brain samples were homogenized with a glass dounce homogenizer in 5 volumes of ddH2O. Brain and plasma samples were snap frozen in liquid nitrogen and stored at −80° C. before further processing.\nThe plasma samples were transferred to Eppendorf tubes (50 μL per sample) and diluted with acetonitrile (200 μL). The samples were sonicated for 1 minute followed by centrifugation at 16,000 rpm for 10 minutes. The supernatant was transferred to another Eppendorf tube and the solvent evaporated overnight. The samples were reconstituted in a mixture of 40 μL acetonitrile and 10 μL water transferred to a sample vial with insert, and analyzed by LC-MS.\nThe homogenized brain samples (250 μL) were transferred to Eppendorf tubes and diluted with acetonitrile (750 μL). The samples were sonicated for 1 minute followed by centrifugation at 16,000 rpm for 10 minutes. The supernatant (900 μL) was transferred to another Eppendorf tube and the solvent evaporated overnight. The samples were reconstituted in a mixture of 80 μL acetonitrile and 20 μL water, transferred to a sample vial with insert, and analyzed by LC-MS.\nLC-MS analysis was performed on a platform comprising a Thermo Scientific Dionex Ultimate 3000 and a Bruker amaZon SL equipped with an electrospray ionization source controlled by Bruker Hystar 3.2. The compound concentration in each plasma sample was determined using a calibration curve. Chromatographic separation was performed by injecting 10 μL of the sample onto an Agilent Eclipse Plus C18 column (2.1×50 mm, 3.5 μm) maintained at 20° C. The flow rate was maintained at 400 μL/min. The initial flow conditions were 60% solvent A (water containing 0.1% acetic acid) and 40% solvent B (methanol containing 0.1% acetic acid). Solvent B was raised to 60% over 0.25 minutes and to 70% by 6.75 minutes."}, "phospho-cjun": {"test_system": "phospho-cjun", "assay": "Phospho-cjun in olfactory bulbs after treatment in vivo (western blot)", "parameters": "species or system mouse", "conditions": "10 mg/kg oral gavage", "experimental": "Compounds at 10 mg/kg were delivered intraperitoneally (IP), orally, or sub-cutaneously (SC). Animals were sacrificed 1 h after treatment. Their olfactory bulbs were dissected and lysed for western blot analysis. Phospho-cjun expression was normalized to the housekeeping protein GAPDH.\nWe therefore selected phospho-cjun as a marker of target engagement for further in vivo studies. C-jun is highly expressed throughout the murine central nervous system, especially in the olfactory bulbs. […] Animals were then sacrificed after 1 h, and their olfactory bulbs were sub-dissected and lysed for further western blot analysis. Samples were probed with an antibody specific to phosphorylated c-jun (at serine 63; cell signaling) and normalized to the housekeeping gene GAPDH."}, "[4]": {"test_system": "human ES motor neurons carrying the ALS-causing SOD1^A4V mutation", "assay": "cells", "format": "cell-based", "conditions": "Homo sapiens, Neuron, 72 h, CPA 33 μM, 72 h", "experimental": "Next, survival assays were performed with all the analogs at once to generate a low-variability dataset. All compounds were evaluated at concentrations ranging from 0.1-3.0 μM (five-point dilution) in three technical replicates and two biological replicates."}, "[5]": {"test_system": "HB9::GFP-SOD1^+/A4V human motor neurons", "assay": "Rescue of CPA toxicity in human ESC-derived motor neurons, SOD1^+/A4V", "format": "cell-based", "conditions": "SOD1^A4V motor neurons, 33 μM CPA", "text": "(§1) One advantage of the stem cell-derived motor neuron survival assay is that it can be easily extended to human motor neurons. To adapt the assay to human cells, we generated a new isogenic pair of ESC lines derived from a human ESC line expressing GFP under the control of the Hb9 motor neuron promoter (HUES3 HB9::GFP, (Di Giorgio et al. 2008)). […] . The pair of cell lines was differentiated into motor neurons in parallel using previously published protocols (Amoroso et al. 2013; […] .\n(§2) Differentiation of human isogenic HUES3 ESC HB9::GFP reporter lines into motor neurons was performed as previously described (Maury et al. 2015). Cells were dissociated on day 16 of differentiation, FACS-sorted and plated on poly-ornithine- and laminin-coated surfaces as above. Serum-free human motor neuron plating media was supplemented with the antimitotic UFdU and the neurotrophic factors GDNF, BDNF, CNTF, and IGF1 (all at 10 ng/mL) as described (Johnson-Kerner et al. 2015)."}, "hSOD1^G93A mice": {"test_system": "hSOD1^G93A mice", "assay": "TUDCA on neuromuscular junction denervation of tibialis anterior", "format": "in vivo, mouse", "conditions": "0.5 mg/g subcutaneously every three days, P30 to P50", "text": "To test the ability of TUDCA to preserve motor axons in ALS models in vivo, we designed a small-scale study in which we evaluated the denervation of the fast fatigable hind limb muscle tibialis anterior (TA) (FIG. 20D). […]. During this period, the TA muscles display 25-40% denervation before becoming substantially atrophied at later time points. […]. At the end of the experiment, we counted total NMJs by staining for acetylcholine receptors on the TA muscle with Alexa Fluor 488-conjugated α-bungarotoxin, and assessed their innervation by staining for motor axons with antibodies against vesicular acetylcholine […] (VAChT) (FIG. 20F). […].\n(2) hSOD1^WT mice receiving 0.5 mg/g TUDCA in 0.01 M PBS subcutaneously to evaluate the mutation-specific effects of NMJ denervation and of the drug; […]. […] Because a lack of co-localization indicated muscle denervation, % NMJ innervation was determined by dividing the total number of areas of overlap between VAChT and BTX signals (total number innervated endplates) by the number of areas containing BTX signal (total number of endplates). One TA was assessed for each animal (n=4-6), with every third section throughout the whole muscle stained and counted such that a minimum of 1000 NMJs were evaluated per animal. Images were acquired using a Nikon Eclipse TE-2000-E fluorescence microscope with a 4× or 10× objective. […]"}, "[6]": {"test_system": "HB9::GFP-SOD1^+/+ human motor neurons", "assay": "Rescue of CPA toxicity in human ESC-derived motor neurons, SOD1^+/+", "format": "cell-based", "conditions": "WT motor neurons, 33 μM CPA", "text": "as §1, §2"}, "[7]": {"assay": "Solubility of kenpaullone (observation)", "format": "physicochemical"}, "MLK3": {"target": "MLK3 (Homo sapiens, UniProt Q16584)", "sequence (Q16584 whole entry, species assumed)": "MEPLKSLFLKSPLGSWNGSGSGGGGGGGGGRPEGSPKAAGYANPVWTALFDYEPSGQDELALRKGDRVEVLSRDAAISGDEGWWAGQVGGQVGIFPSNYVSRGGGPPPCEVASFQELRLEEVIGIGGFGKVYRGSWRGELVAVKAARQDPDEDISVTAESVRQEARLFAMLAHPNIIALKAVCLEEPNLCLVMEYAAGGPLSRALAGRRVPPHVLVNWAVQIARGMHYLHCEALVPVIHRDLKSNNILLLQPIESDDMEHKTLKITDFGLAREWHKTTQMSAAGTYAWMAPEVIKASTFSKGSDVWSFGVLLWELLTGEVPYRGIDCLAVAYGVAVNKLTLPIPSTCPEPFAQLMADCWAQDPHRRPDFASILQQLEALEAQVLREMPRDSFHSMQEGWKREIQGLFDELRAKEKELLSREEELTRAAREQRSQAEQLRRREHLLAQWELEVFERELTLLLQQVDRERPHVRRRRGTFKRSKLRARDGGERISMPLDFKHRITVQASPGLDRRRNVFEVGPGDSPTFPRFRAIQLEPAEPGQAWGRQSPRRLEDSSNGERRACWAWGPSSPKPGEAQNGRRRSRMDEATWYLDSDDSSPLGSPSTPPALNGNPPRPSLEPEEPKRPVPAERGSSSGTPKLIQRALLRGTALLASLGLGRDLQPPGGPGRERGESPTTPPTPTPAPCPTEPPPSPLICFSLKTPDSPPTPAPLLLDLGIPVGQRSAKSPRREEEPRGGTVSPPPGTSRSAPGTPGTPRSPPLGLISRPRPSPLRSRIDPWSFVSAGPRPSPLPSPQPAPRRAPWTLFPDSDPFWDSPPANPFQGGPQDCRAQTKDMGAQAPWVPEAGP", "conditions": "0.5 μM; Anastassiadis et al. 2011; cited from earlier work"}}, "note": "Several values for one entry are separate records, joined by “and”; a condition that tells them apart may be missing. Equal values may be shown once. Read-outs that look alike come from different tables or passages of the source."}
{"molecule": "Cc1nc(Nc2cnn(C3CCNCC3)c2)nc2c1N(C)C(=O)c1cc3ccccc3cc1N2C", "note": "[HTH 01-015]", "values": [{"measurement": "rescue of CPA toxicity", "setting": "human ES motor neurons", "value": "failed to rescue CPA toxicity"}, {"measurement": "IC50", "setting": "NUAK1", "value": 100, "unit": "nM"}, {"measurement": "rescue of CPA toxicity", "setting": "[1]", "value": "unable to rescue CPA toxicity"}, {"measurement": "concentration above which toxic to motor neurons in the absence of CPA", "setting": "[2]", "value": "above 2 μM"}]}
{"molecule": "OCCN1CCN(Cc2ccc(-c3cnc4[nH]cc(-c5cccc(F)c5)c4c3)cc2)CC1", "note": "[Compound 12h, 2-(4-(4-(3-(3-Fluorophenyl)-1H-pyrrolo[2,3-b]pyridin-5-yl)benzyl)piperazin-1-yl)ethan-1-ol]", "values": [{"measurement": "Kp at 30 min", "setting": "[3]; 10 mg/kg", "value": 2}, {"measurement": "Kp at 30 min", "setting": "[3]; 20 mg/kg", "value": 3.3}, {"measurement": "concentration at 30 min", "setting": "[3]; 10 mg/kg, read-out: brain", "value": "< 500 ng/g and < 1.2 µM"}, {"measurement": "concentration at 30 min", "setting": "[3]; 10 mg/kg, read-out: plasma", "value": "< 250 ng/mL and < 580 nM"}, {"measurement": "concentration at 30 min", "setting": "[3]; 20 mg/kg, read-out: brain", "value": "1670 ng/g and 3.88 µM"}, {"measurement": "concentration at 30 min", "setting": "[3]; 20 mg/kg, read-out: plasma", "value": "505 ng/mL and 1.17 µM"}, {"measurement": "oral bioavailability (from reduction of cjun phosphorylation after oral gavage)", "setting": "phospho-cjun", "value": "orally bioavailable"}, {"measurement": "EC50", "setting": "[4]; read-out: EC50", "value": 100, "unit": "nM"}, {"measurement": "Emax", "setting": "[4]; read-out: Emax (MN survival % untreated)", "value": 117, "unit": "%"}]}
{"molecule": "C[C@H](CCC(=O)NCCS(=O)(=O)O)[C@H]1CC[C@H]2[C@@H]3[C@@H](O)C[C@@H]4C[C@H](O)CC[C@]4(C)[C@H]3CC[C@]12C", "note": "[TUDCA, tauroursodeoxycholic acid]", "values": [{"measurement": "rescue of CPA-induced cell death", "setting": "[5]", "value": 9, "unit": "%"}, {"measurement": "NMJ innervation vs untreated animals", "setting": "hSOD1^G93A mice", "value": "moderate, but statistically significant increase in NMJ innervation"}, {"measurement": "rescue of CPA-induced cell death", "setting": "[6]", "value": 34, "unit": "%"}]}
{"molecule": "O=C1Cc2c([nH]c3ccc(Br)cc23)-c2ccccc2N1", "note": "[Kenpaullone]", "values": [{"measurement": "rescue of CPA-induced cell death", "setting": "[5]", "value": 31, "unit": "%"}, {"measurement": "solubility at the concentrations effective in in vitro CPA assays", "setting": "[7]", "value": "insoluble"}, {"measurement": "rescue of CPA-induced cell death", "setting": "[6]", "value": 42, "unit": "%"}, {"measurement": "MLK3 activity remaining", "setting": "MLK3", "value": 49.3, "unit": "%"}]}
